From US6656911B2, “Serine protease inhibitors” (Cortech, Inc., priority 1994, dated 2003) come the findings set out here.

The term Ki denotes a dissociation constant, usually derived from enzyme kinetics or from competition with a known ligand. By inhibition is commonly meant how much of the control response was suppressed. Low readings indicate a response near the control, high ones a response far below the control.

Data set [1] addresses T1, elastase derived from human sputum (HSE) (Homo sapiens, UniProt P08246).
T1 construct: prepared from commercially available HSE (875 U/mg protein, SE-563, Elastin Product Co., Inc., Missouri, USA); purchased Elastin Product Co., Inc., Missouri, USA SE-563; host or cells: human sputum (natural enzyme)
T1 sequence (P08246 30-247 limits assumed): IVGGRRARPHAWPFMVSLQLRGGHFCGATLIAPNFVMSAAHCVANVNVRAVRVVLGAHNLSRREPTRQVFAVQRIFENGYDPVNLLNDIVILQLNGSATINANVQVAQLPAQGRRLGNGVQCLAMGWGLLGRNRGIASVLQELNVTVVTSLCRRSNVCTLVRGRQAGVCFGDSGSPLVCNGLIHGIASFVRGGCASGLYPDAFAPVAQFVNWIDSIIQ
The experiment in a line: In vitro inhibition of elastase (ONO-PO series). Format: biochemical. Conditions: substrate N-methoxysuccinyl-Ala-Ala-Pro-Val-p-nitroaniline, 37° C., pH 8.0, IC50 converted to Ki by Dixson plot.

The subject of data set [2] is polymorphoneucleocyte (PMN). The experiment in a line: Extracellular Matrix (ECM) degradation assay. Conditions: PMN's stimulated with opsonized zymosan, 4 hr at 37° C. Type of data set: cell-based. The gist of the method: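 Radiolabelled ([35S]sulfate/[3H]proline) ECM from R22 rat smooth muscle cells preincubated 30 min with 1 or 5 uM inhibitor in HBSS (<2% DMSO). PMNs (5×10^5/well) stimulated with serum-opsonized zymosan (10 particles/PMN), 4 h at 37 °C. Degradation = released over total ECM counts, minus PMN-free basal release.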

Data set [3] is described as follows: Blood level screening after oral dose. Format: in vivo, Sprague-Dawley rats. Conditions: rat, oral gavage 10 mg/kg. The gist of the method: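 Unfasted male Sprague-Dawley rats received 10 mg/kg by oral gavage in PEG, PEG-400 or PEG:H2O:EtOH. Plasma was solvent-extracted and the inhibitor measured by HPLC or LC/MS.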
Data set [4] concerns the target T2, human neutrophil elastase (HNE) (Homo sapiens, UniProt P08246).
T2 sequence (P08246 30-267): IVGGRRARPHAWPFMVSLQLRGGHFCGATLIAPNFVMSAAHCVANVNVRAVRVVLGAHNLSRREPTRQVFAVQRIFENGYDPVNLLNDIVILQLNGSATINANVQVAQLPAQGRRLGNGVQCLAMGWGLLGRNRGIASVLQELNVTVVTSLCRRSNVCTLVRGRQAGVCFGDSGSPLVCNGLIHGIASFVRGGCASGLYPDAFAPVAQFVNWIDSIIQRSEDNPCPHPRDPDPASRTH
Nature of the data set: HNE Ki of CE compounds, tested as described in WO 96/16080. Format: biochemical. Conditions: read-out: HNE Ki.

Molecule `CC(C)C(NC(=O)Cn1c(-c2ccccc2)nccc1=O)C(=O)c1nnc(C(C)(C)C)o1` (racemic) [ONO-PO-737, 2-[6-Oxo-2-phenyl)-1,6-dihydro-1-pyrimidinyl]-N-[1-(2-[5-tert-butyl-1,3,4-oxadiazolyl]carbonyl)-2-(R,S)-methylpropyl]acetamide] returned a Ki in data set [1] of 36.3 nM.
In the case of `Cc1cccc(Cc2nnc(C(=O)[C@@H](NC(=O)CN3C(=O)CN=C(c4ccccc4N(C)C)c4ccccc43)C(C)C)o2)c1` [CE2258, 2-Oxo-5-phenyl-1,4-(2′-dimethylaminobenzodiazepine)-N-[1-(2-[5-(3-methylbenzyl)-1,3,4-oxadiazolyl]carbonyl)-2-(S)-methylpropyl]acetamide], the “ECM DATA % Inhibition 1 uM” value in data set [2] (1 uM inhibitor) is given as 42.9%. Moreover, in data set [2] (5 uM inhibitor), the “ECM DATA % Inhibition 5 uM” value amounted to 38.1%. The “Plasma Levels (μM) 1 hr” value in data set [3] (1 hr) amounted to 1.624 µM. The “Plasma Levels (μM) 3 hr” value in data set [3] (3 hr) amounted to 1.5 µM. In addition, in data set [3] (6 hr), the “Plasma Levels (μM) 6 hr” value was determined as 1.212 µM. Further, the Ki in data set [4] was found to be 3.7 nM.
`CC(C)[C@H](NC(=O)CN1C(=O)NC(c2ccccc2)(c2ccccc2)C1=O)C(=O)c1nnc(Cc2ccc3c(c2)OCO3)o1` [CE2259, 4,4-Diphenyl-2,5-imidazolidinedione-N-[1-(2-[5-(3,4-methylenedioxybenzyl)-1,3,4-oxadiazolyl]carbonyl)-2-(S)-methylpropyl]acetamide]: the “ECM DATA % Inhibition 1 uM” value in data set [2] (1 uM inhibitor) is 43%. In addition, the “ECM DATA % Inhibition 5 uM” value in data set [2] (5 uM inhibitor) is recorded as 59.6%. The “Plasma Levels (μM) 1 hr” value in data set [3] (1 hr) stood at 0.597 µM. Further, the “Plasma Levels (μM) 3 hr” value in data set [3] (3 hr) worked out at 0.846 µM. In addition, the “Plasma Levels (μM) 6 hr” value in data set [3] (6 hr) turned out to be 0.502 µM. In addition, in data set [4], the Ki is 3.3 nM.
Consider `Cc1cccc(Cc2nnc(C(=O)[C@@H](NC(=O)Cn3c(-c4ccccc4)ncc(N)c3=O)C(C)C)o2)c1` [CE2260, 2-[5-Amino-6-oxo-2-phenyl-1,6-dihydro-1-pyrimidinyl]-N-[1-(2-[5-(3-methylbenzyl)-1,3,4-oxadiazolyl]carbonyl)-2-(S)-methylpropyl]acetamide], for which at 1 µM the inhibition in data set [2] (1 uM inhibitor) was 68.3%. The molecule also showed an inhibition at 5 µM in data set [2] (5 uM inhibitor) of 59.7%. Moreover, the concentration at 1 h in data set [3] (male, Sprague-Dawley, plasma, 1 hr, read-out: Plasma Levels (μM) 1 hr) is 3.53 µM. The concentration at 3 h in data set [3] (male, Sprague-Dawley, plasma, 3 hr, read-out: Plasma Levels (μM) 3 hr) stood at 3.05 µM. In data set [3] (male, Sprague-Dawley, plasma, 6 hr, read-out: Plasma Levels (μM) 6 hr), the concentration at 6 h turned out to be 1.89 µM. Moreover, the Ki in data set [4] turned out to be 0.39 nM.
On to `CC(C)[C@H](NC(=O)Cn1c(-c2ccc(F)cc2)ncc(NC(=O)OCc2ccccc2)c1=O)C(=O)c1nnc(C(C)(C)c2ccccc2)o1` [ONO-PO-690, 2-[5-(Benzyloxycarbonyl)amino-6-oxo-2-(4-fluorophenyl)-1,6-dihydro-1-pyrimidinyl]-N-[1-(2-[5-(α,α-dimethylbenzyl)-1,3,4-oxadiazolyl]carbonyl)-2-(S)-methylpropyl]acetamide], for which the inhibition constant Ki in data set [1] was found to be 78.3 nM.
On the same count and under the same terms, the result for `CC(C)[C@H](NC(=O)Cn1c(-c2ccc(F)cc2)ncc(N)c1=O)C(=O)c1nnc(-c2ccccc2)o1` [ONO-PO-694, 2-[5-Amino-6-oxo-2-(4-fluorophenyl)-1,6-dihydro-1-pyrimidinyl]-N-[1-(2-[5-phenyl-1,3,4-oxadiazolyl]carbonyl)-2-(S)-methylpropyl]acetamide] reads 24.8 nM; that for `CC(C)[C@H](NC(=O)Cn1c(-c2ccc(F)cc2)ncc(N)c1=O)C(=O)c1nnc(-c2cccnc2)o1` [ONO-PO-695, 2-[5-Amino-6-oxo-2-(4-fluorophenyl)-1,6-dihydro-1-pyrimidinyl]-N-[1-(2-[5-(3-pyridyl)-1,3,4-oxadiazolyl]carbonyl)-2-(S)-methylpropyl]acetamide], 13.9 nM.
Consider `CC(C)[C@H](NC(=O)Cn1c(-c2ccc(F)cc2)ncc(NC(=O)OCc2ccccc2)c1=O)C(=O)c1nnc(-c2ccccc2)o1` [ONO-PO-697, 2-[5-(Benzyloxycarbonyl)amino-6-oxo-2-(4-fluorophenyl)-1,6-dihydro-1-pyrimidinyl]-N-[1-(2-[5-phenyl-1,3,4-oxadiazolyl]carbonyl)-2-(S)-methylpropyl]acetamide], for which, in data set [1], the Ki came out at 27.3 nM.
Still for that read-out and setting: as for `CC(C)[C@H](NC(=O)Cn1c(-c2ccc(F)cc2)ncc(NC(=O)OCc2ccccc2)c1=O)C(=O)c1nnc(C(C)(C)C)o1` [ONO-PO-698, 2-[5-(Benzyloxycarbonyl)amino-6-oxo-2-(4-fluorophenyl)-1,6-dihydro-1-pyrimidinyl]-N-[1-(2-[5-tert-butyl-1,3,4-oxadiazolyl]carbonyl)-2-(S)-methylpropyl]acetamide], the figure is 0.77 nM; as for `COc1ccc(-c2nnc(C(=O)[C@@H](NC(=O)Cn3c(-c4ccc(F)cc4)ncc(N)c3=O)C(C)C)o2)cc1` [ONO-PO-699, 2-[5-Amino-6-oxo-2-(4-fluorophenyl)-1,6-dihydro-1-pyrimidinyl]-N-[1-(2-[5-(4-methoxyphenyl)-1,3,4-oxadiazolyl]carbonyl)-2-(S)-methylpropyl]acetamide], 21.2 nM.
On the same count and under the same terms, as for `CC(C)[C@H](NC(=O)Cn1c(-c2ccc(F)cc2)ncc(N)c1=O)C(=O)c1nnc(C(C)(C)c2ccc(O)c(O)c2)o1` [ONO-PO-701, 2-[5-Amino-6-oxo-2-(4-fluorophenyl)-1,6-dihydro-1-pyrimidinyl]-N-[1-(2-[5-(α,α-dimethyl-3,4-dihydroxybenzyl)-1,3,4-oxadiazolyl]carbonyl)-2-(S)-methylpropyl]acetamide], the figure is 2.98 nM; as for `Cc1cccc(Cc2nnc(C(=O)[C@@H](NC(=O)Cn3c(-c4ccc(F)cc4)ncc(NS(C)(=O)=O)c3=O)C(C)C)o2)c1` [ONO-PO-702, 2-[5-(Methylsulfonyl)amino-6-oxo-2-(4-fluorophenyl)-1,6-dihydro-1-pyrimidinyl]-N-[1-(2-[5-(3-methylbenzyl)-1,3,4-oxadiazolyl]carbonyl)-2-(S)-methylpropyl]acetamide], 1.78 nM.
On the same count and under the same terms, as for `CC(C)[C@H](NC(=O)Cn1c(-c2ccc(F)cc2)ncc(N)c1=O)C(=O)c1nnc(Cc2ccccc2)o1` [ONO-PO-703, 2-[5-Amino-6-oxo-2-(4-fluorophenyl)-1,6-dihydro-1-pyrimidinyl]-N-[1-(2-[5-benzyl-1,3,4-oxadiazolyl]carbonyl)-2-(S)-methylpropyl]acetamide], the figure is 2.25 nM; as for `Cc1nnc(C(=O)[C@@H](NC(=O)Cn2c(-c3ccc(F)cc3)ncc(N)c2=O)C(C)C)o1` [ONO-PO-704, 2-[5-Amino-6-oxo-2-(4-fluorophenyl)-1,6-dihydro-1-pyrimidinyl]-N-[1-(2-[5-methyl-1,3,4-oxadiazolyl]carbonyl)-2-(S)-methylpropyl]acetamide], 14 nM; as for `CC(C)c1nnc(C(=O)[C@@H](NC(=O)Cn2c(-c3ccc(F)cc3)ncc(N)c2=O)C(C)C)o1` [ONO-PO-705, 2-[5-Amino-6-oxo-2-(4-fluorophenyl)-1,6-dihydro-1-pyrimidinyl]-N-[1-(2-[5-isopropyl-1,3,4-oxadiazolyl]carbonyl)-2-(S)-methylpropyl]acetamide], 10.7 nM.
In data set [1], `CCCCc1nnc(C(=O)[C@@H](NC(=O)Cn2c(-c3ccc(F)cc3)ncc(N)c2=O)C(C)C)o1` [ONO-PO-706, 2-[5-Amino-6-oxo-2-(4-fluorophenyl)-1,6-dihydro-1-pyrimidinyl]-N-[1-(2-[5-butyl-1,3,4-oxadiazolyl]carbonyl)-2-(S)-methylpropyl]acetamide] returned a Ki of 6.76 nM.
The molecule `CC(C)C[C@@H]1NC(=O)N(CC(=O)N[C@H](C(=O)c2nnc(C(C)(C)C)o2)C(C)C)C1=O` [ONO-PO-708, 4-(S)-(2-Isobutyl)-2,5-imidazolidinedione-N-[1-(2-[5-tert-butyl-1,3,4-oxadiazolyl]carbonyl)-2-(S)-methylpropyl]acetamide] returned a Ki in data set [1] of 730 nM.
`CC(C)C[C@@H]1NC(=O)N(CC(=O)N[C@H](C(=O)c2nnc(C(C)(C)c3ccccc3)o2)C(C)C)C1=O` [ONO-PO-709, 4-(S)-(2-Isobutyl)-2,5-imidazolidinedione-N-[1-(2-[5-(α,α-dimethylbenzyl)-1,3,4-oxadiazolyl]carbonyl)-2-(S)-methylpropyl]acetamide] gave a Ki in data set [1] of 25.7 nM.
On the same count and under the same terms, as for `CC(C)[C@H](NC(=O)[C@@H]1CCCN1C(=O)[C@@H](NS(C)(=O)=O)C(C)C)C(=O)c1nnc(C(C)(C)c2ccccc2)o1` [ONO-PO-710, Methylsulfonyl-L-valyl-N-[1-(2-[5-(α,α-dimethylbenzyl)-1,3,4-oxadiazolyl]carbonyl)-2-(S)-methylpropyl]-L-prolinamide], the figure is 2.39 nM.
